Source: patent US7947668B2, “Aminoalkyl sterol compounds having an anti-tumoral and neuroprotective activity” (Institut National de la Sante et de la Recherche Medicale, priority 2002, dated 2011)

Experiments:
U-937 cells = assay: Production of IL-12p70 and IL-10 by the dendritic cells (ELISA); format: cell-based, human
Description: The culture supernatants are frozen at a temperature of −80° C. until the time of testing for the presence of cytokines. The presence of IL-12p70 and IL-10 is measured using ELISA kits obtained from “Endogen” (Woburn, Mass., USA).
This phenomenon continues for the two weeks of treatment.

[1] = tested on: TS/A tumors implanted onto BALB/c mice; assay: Growth tests on tumors implanted onto BALB/c mice; format: in vivo; conditions: for tumor growth relative to the control mice: intradermal in the region of the tumor
Description: The tumors are implanted in the following manner: 1×10^6 TS/A cells are inoculated by intradermal injection into the right side of the abdomen of 5-6-week-old BALB/c mice (Janvier breeding station, Le Genest Saint Isle).
The test molecule is the one corresponding to example 9; it is injected on the third day intradermally in the region of the tumor; the result is shown in FIG. 7.
The same experiment as that described above was repeated, changing the area of injection of the molecule corresponding to example 9; the injection is performed on the third day after implantation of the tumor, intradermally into the controlateral position relative to said implantation. […] This illustrates the efficacy of the treatment for an administration of the test compound remote from the tumor. The results obtained are represented by the curves in FIG. 17.

TS/A (H-2^d) cells = assay: Cytotoxicity on TS/A mouse mammary adenocarcinoma cells in culture; format: cell-based
Description: The mouse tumoral line TS/A(H-2^d) is a cell line of a spontaneous mammary adenocarcinoma of syngenic mice of BALB/c mice. They are cultured in mycoplasm-free controlled RPMI 1640 medium supplemented with endotoxin-free controlled fetal calf serum (Girco-Brio, 2 mM of glutamine, 100 U/ml of penicillin, 50 μg/ml of streptomycin, essential amino acids and sodium pyruvate.
The cytotoxicity appears for doses of 50 μM.

[2] = tested on: C57BL/6 mouse spleen monocytes; assay: Dendritogenesis on C57BL/6 mouse spleen monocytes; format: cell-based; conditions: dose of 1 nM, 36 hours after the start of action
Description: 1) On C57BL/6 Mouse Spleen Monocytes
5-week-old mice are sacrificed by cervical dislocation. They are then dissected. The spleens are removed under sterile conditions and then placed in a cold solution (4° C.) containing serum-free culture medium supplemented with antibiotics (streptomycin and penicillin). The spleens are ground in a sterile fume cupboard and then filtered through a 100 μm filter. The eluate is recovered and then centrifuged at 1000 rpm for 5 minutes at 4° C. The cell pellet is resuspended in phosphate-buffered saline (PBS) solution containing […], the purpose of which is to lyze the red blood cells. The suspension is centrifuged at 1000 rpm and the cells are then resuspended in PBS. The washing operation is performed twice. The final resuspension is performed in whole culture medium, and the cells are counted and distributed into six-well dishes at a density of 40 000 cells/ml. Four hours later, the adhering cells are washed vigorously with PBS in order to remove the cells that might remain attached to the adhering cells or to the culture dish.
The conversion was obtained with a dose of 1 nM, the photograph having been taken 36 hours after the start of action of the product. The test product is that of example 9. The appearance of cellular extensions is observed, which is one of the main characteristics of activated dendritic cells.

[3] = tested on: U-937 human myeloid leukemia cells; assay: Dendritogenesis on U-937 human myeloid leukemia cells; format: cell-based; conditions: 1 nM
Text: 2) On U-937 Human Myeloid Leukemia Cells

U937 cells = assay: Induction of vacuole production in the U937 tumoral cell line; format: cell-based, human; conditions: 10 nM, 24 hours
Description: U937 cells were treated with 10 nM of the compound according to example 9 for 24 hours. The treatment methods are those described in detail in example 55.

[4] = tested on: U937 cells expressing RCPG-HA; assay: Overexpression of a membrane receptor in the U937 tumoral cell line; format: cell-based, human; conditions: 10 nM, 12 hours, 48 hours after transfection
Description: U937 cells were cultured in an “RPMI 1640” medium sold by the company “Gibco BRL”. A plasmid coding for an […] membrane receptor belonging to the superfamily of protein G-coupled receptors and containing an HA label is generated.
The U937 cells expressing the receptors are generated by transfection using the “lipofectamine” reagent according to the manufacturer's instructions.
48 hours after transfection, the transfected cells were treated with 10 nM of compound according to example 9 for 12 hours.
These cells were fixed in order to be examined by fluorescence microscopy.

A549 cells = assay: Induction of vacuole production in the A549 tumoral cell line; format: cell-based, human
Description: A549 cells were treated with 100 nM of compound according to example 9, for 12 hours.
The A549 cells were obtained from the American Tissue Culture Collection (ATCC); they were inoculated at a density of 50 000 cells per well into 12-well plates and were cultured in RPMI medium supplemented with 5% fetal calf serum. To perform the treatment with the compound according to the invention, the cells are incubated with said compound (or with a control product) for 48 hours. The cells are then observed by phase-contrast microscopy every four hours to monitor the formation of vacuoles, and are then fixed with 0.4% paraformaldehyde solution in phosphate-buffered saline (PBS) at pH 7.4.
To obtain photograph D indicated above, the process was performed as follows: after treating the cells, the culture medium is removed and the cells are washed with PBS at pH 7.4. The cells are incubated for 10 minutes with 1 μM solutions of monodansyl cadaverine (MDC). They are then rinsed thoroughly with PBS solution at 4° C. One drop of “Vectashield” solution (Vector Laboratories, CA) is added before mounting between microscope slide and cover slip: the cells are then observed rapidly under the microscope and photographed.
The A549 cells treated as indicated above with the compound according to example 9 were also examined by electron microscopy. To examine these A549 cells by electron microscopy, they are fixed using a solution of PBS containing 3% glutaraldehyde, taken up in resin (EPON) and finally cut into thin slices using an ultra-microtome. These slices are then placed on 200-mesh copper grilles and examined by electron microscopy. […] In this FIG. 11, the letters used have the following meanings: N=nucleus; C=cytoplasm; M=mitochondria; Vi=intracytoplasmic vesicles; Ve=extracellular vesicles; MLB=multilamellar body.

With `CC(C)CCC[C@@H](C)[C@H]1CC[C@H]2[C@@H]3C[C@@H](NCCc4c[nH]cn4)[C@@]4(O)C[C@@H](O)CC[C@]4(C)[C@H]3CC[C@]12C` [Example 9, cholestane-3β,5α-diol-6β-N-[2-ethylamino(1H-imidazol-4-yl)]] the “production of the p70 subunit of IL-12” value (U-937 cells; from 36 hours after the start of the treatment, continues for the two weeks of treatment) was “stimulates the production of the p70 subunit of IL-12”, the “transcription/production of IL-10” value (U-937 cells; treatments extending over a period of two weeks) was “does not stimulate the transcription of IL-10” and the “tumor growth relative to the control mice” value ([1]; 8.5 ng/g of mouse, third day) was “slowing-down effect”. The “tumor growth relative to the control mice” value ([1]; 1.7 μg/g of mouse, third day) was “no tumor is detectable”, the “tumor growth relative to the control mice, administration remote from the tumor” value ([1]; 1.7 μg/g of mouse, intradermal, controlateral position, third day) was “slowing-down of the tumoral growth” and the “peripheral lymphoid system, activation of the immune system” value ([1]; 1.7 μg/g, whether or not a tumor has been implanted) was “hyperplasia of the peripheral lymphoid system is observed”. The “necrosis in the area of injection (anatomopathology)” value ([1]; intradermal injection) was “no trace of necrosis is observable”, the “toxicity on TS/A cells” value (TS/A (H-2^d) cells; doses of 5 nM and 1 μM, irrespective of the incubation time) was “no toxicity is observed” and the “dose at which cytotoxicity on TS/A appears” value (TS/A (H-2^d) cells; in vitro) was 50 µM. The “morphological changes on the mouse monocytes, conversion into dendritic cells” value [2] was “conversion resulting in dendritic cells”, the “formation of rosettes (aggregate of entangled cells)” value ([3]; after treatment for 5 days) was “formation of a large number of rosettes” and the “size of the dendrites” value ([3]; after treatment for 5 days) was “up to 100 μm”. The “induction of differentiation of the U-937 cells into dendritic cells” value ([3]; treatment for 2 days, after 10 ng/ml PMA) was “appearance of dendritic cells”, the “induction of vacuole production in U937 cells (electron microscopy)” value (U937 cells) was “numerous intracytoplasmic vacuoles have appeared” and the “expression of RCPG-HA membrane receptor (immunofluorescence)” value [4] was “expression of a membrane receptor of RCPG type”. The “induction of vacuole production in A549 cells” value (A549 cells; 100 nM, 12 hours) was “massive production of cytoplasmic vacuoles”, the “dose dependence of the vacuole effect” value (A549 cells; A549 cells) was “dose-dependent” and the “time after the treatment at which the vacuole effect appears” value (A549 cells; A549 cells) was “six”. For the same compound, the “time after the treatment at which the vacuole effect reaches a maximum” value (A549 cells; A549 cells) was 12 h, the “electron microscopy of treated A549 cells” value (A549 cells; FIG. 11.2) was “numerous vacuoles and mitochondria are also observed in the cytoplasm” and the “reversibility of the vacuole effect” value (A549 cells; growth medium replaced with fresh medium) was “reversible”.
